One data set has as its target T1, Raf1 (c-Raf) (Homo sapiens, UniProt P04049).
T1 construct: Sf9 insect cell lysate containing full length 6 his-tagged recombinant human c—Raf; 6His; host or cells: Sf9 insect cells (c-Raf, used as lysate); E. coli (GST-MEK1, GST-MAPK)
Briefly: Raf1 Kinase Cascade Assay. It counts as biochemical. As to the method:
Raf1 Kinase Cascade Assay Procedure
(Specific Activity: ˜200 U/ml). Human Non-active Mek-1—GST and human GST-MAP kinase (recombinant proteins produced in E. coli).
Stock Solutions Raf Assay:
Assay Dilution Buffer (ADB): 2 OmM MOPS, pH 7.2, 25 mM B-glycerol phosphate, mM EGTA, 1 mM sodium orthovanadate, 1 mM dithiothreitol. Magnesium/ATP Cocktail: 500 AM cold ATP and 75 mM magnesium chloride in ADB.
Active Kinase: Human Active c—Raf: Use at 0.4 U per assay point. Non-active GST-MEK1: Use at 0.1, ug per assay point. Non-active GST-p42 MAP Kinase: Use at 1.0 tg per assay point.
TBST—Tris (50 mM, pH 7.5)-1H-, NaCl (150 mM), Tween-20 (0.05%) Superblock (Pierce) Anti—GST Ab (Pharmacia) Anti-Phospho MAPK (Sigma) Anti-Mouse Ab/Europium conjugate (Wallac)
Assay Procedure: First Stage: c—Raf Dependent Activation of GST-MEK and GST-MAPK Add […] of ADB per assay (i.e. per well of a 96 well plate) Add 10 ml of 0.5 mM cold ATP and 75 mM magnesium chloride in ADB. Add 2 ml of c—Raf (0.4 U/assay), in conjunction with 1.6 ml non-active MEKI (0.4 mg/assay). Add 4 ml of non-active GST-p42 MAP Kinase (1.0 mg/assay). Incubate for 60 minutes at 30° C. in a shaking incubator. Transfer this mixture to an anti—GST Ab coated 96 well plate (Nunc Immunosorb plates coated o/n with a—GST, then blocked with Pierce Superblock). Incubate for 60 minutes at 30° C. in a shaking incubator Wash 3×with TBST, add Anti-Phospho MAPK (Sigma) (1:3000)-1H-Incubate for 60 minutes at 30° C. in a shaking incubator Wash 3×with TBST, add Anti-Mouse Ab/Europium conjugate (Wallac) (1:500)-1H-Incubate for 60 minutes at 30° C. in a shaking incubator Wash 3×with TBST, Read plates in Wallac Victor model Plate Reader. Collect data analyze in Excel for single point and IC50 determinations.
IC50 determinations - done on compounds from single point assays with >80% inhibition. Typically Raf-1 assay is run at compound concentrations from 10 μM to 30 nM in half log dilutions. (% inhibition is determined for each compound concentration).

In data set [1] the test system is Human adenocarcinoma cell line LoVo. Kind of data set: Cell Based Screen for Inhibitors of Raf Kinase, LoVo. Conditions: four days incubation, SRB. As to the method: (§1) Cell Based Screen for Inhibitors of Raf Kinase.
(§2) Cell Lines: Human adenocarcinoma cell line LoVo which is known to be growth inhibited by low nM concentrations of a reference standard inhibitor of Ras and human adenocarcinoma cell line CaCo-2, which is known to be growth resistant to the same reference compound. Cell Media: RPMI 1640 with 10% Fetal Bovine Serum supplemented with L-glutamine and Pennicilin/Streptomycin. Compounds: Supplied usually as a 10 mM stock in 100% DMSO. Normal Saline: 150 mM NaCl Trichloroacetic Acid (TCA): 50% (w/v) in water Sulforhodamine B (SRB): 0.4% (w/v) in 1% Acetic Acid Tris Base: 10 mM in water
(§3) Cells are plated at 2000 cells per well for cell line LoVo and 1500 cells for cell line CaCo-2 in 96 well plates. Cells are plated in media (200 μl) and allowed to adhere overnight at 37 ° C. At 24 hours post plating, compounds are added directly at a volume of 0.5 μl. For the qualitative screen (compounds screened at 25 μM) compound is added directly to cells. For the quantitative screen, compound is first diluted in DMSO to generate concentrations of compound or reference standard of: 1, 5, 10 and 25 μM. It is advisable to make the dilutions in an identical 96 well plate so that compounds may be added using a multichannel micropipettor set at 0.5 μl. The cells are then incubated for four days after which the media is removed using a 12 well manifold by first tipping the plate forward at a 45 degree angle and then inserting the manifold in an upright orientation to prevent the ti
(§4) of the manifold from disturbing cells at the bottom of the plate. 200 μl of normal saline is then added to each well using an 8 well multichannel pipettor, followed by the careful addition of 50 μl of 50% TCA. The plates are then incubated for 2 hours at 4 ° C, after which the supernatant is removed using the same technique as above and the plated washed twice with 200 ul water. The plates are then air dried and 50 μl of SRB stock solution is carefully added so that the entire bottom of each well is covered. This again may be used using an 8 well multichannel pipettor. The SRB is incubated with fixed cells for 15 minutes at room temperature after which the SRB is removed with the manifold as described above and the plates washed twice with 350 μl of 1% acetic acid per well each time.The plates are then air dried after which the bound SRB is released from protein by the addition of 200 µl of Tris base. Resolubilizing the SRB is aided by placing the plates on a rotator for 15-30 minutes. The absorbance of each well is determined at 550 or 562 nm using a microtiter plate reader.
(§5) Each compound or dilution thereof is performed in triplicate. Outliers are identified by visual inspection of the data. Each plate should have a “0” control (vehicle only). […] Quantitative Assay: A standard curve is constructed by plotting the concentration of compound against the average absorbance calculated at that concentration. A curve is plotted and the concentration at which the curve passes through the 50% the absorbance mark seen in the “0” control well is the IC50 calculated for that compound. Multiple entries for a given compound indicate that it was tested multiple times.

Data set [2] concerns human adenocarcinoma cell line CaCo-2. Kind of data set: Cell Based Screen for Inhibitors of Raf Kinase, CaCo-2. Conditions: four days incubation, SRB. As to the method: as §1, §2, §3, §4, §5

Each structure is given as a SMILES string. “And” between values parts separate entries of the source, which are not always exact repeats. Equal values may be shown once.

T1 sequence (P04049 whole entry): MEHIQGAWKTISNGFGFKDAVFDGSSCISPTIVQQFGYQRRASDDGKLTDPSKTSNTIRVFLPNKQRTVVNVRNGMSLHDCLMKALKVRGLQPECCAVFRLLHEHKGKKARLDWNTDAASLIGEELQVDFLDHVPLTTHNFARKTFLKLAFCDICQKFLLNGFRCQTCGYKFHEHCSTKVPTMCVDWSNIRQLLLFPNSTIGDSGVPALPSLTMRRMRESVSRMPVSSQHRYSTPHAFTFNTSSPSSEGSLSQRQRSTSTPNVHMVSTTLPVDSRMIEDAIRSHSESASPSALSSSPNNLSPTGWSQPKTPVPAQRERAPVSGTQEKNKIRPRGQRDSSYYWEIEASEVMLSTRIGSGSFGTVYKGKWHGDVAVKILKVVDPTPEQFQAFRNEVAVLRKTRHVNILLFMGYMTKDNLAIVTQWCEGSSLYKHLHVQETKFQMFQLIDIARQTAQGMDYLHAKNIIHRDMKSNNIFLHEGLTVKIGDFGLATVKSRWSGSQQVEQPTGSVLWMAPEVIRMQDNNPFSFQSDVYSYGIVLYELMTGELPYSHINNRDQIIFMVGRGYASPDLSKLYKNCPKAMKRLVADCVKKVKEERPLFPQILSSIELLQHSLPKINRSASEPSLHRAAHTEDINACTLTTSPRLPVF

`Cn1ccnc1Sc1ccc(Nc2c(C#N)cnc3cc(-c4ccc(CN5CCNCC5)cc4)ccc23)cc1Cl` [Example 97, 4-({3-chloro-4-[(1-methylimidazol-2-yl)sulfanyl]phenyl}amino)-7-[4-(1-piperazinylmethyl)phenyl]-3-quinolinecarbonitrile] came in with a melting point of 140 to 142 °C. The same molecule had an IC50 at Raf1 (c-Raf) of 16 nM. The molecule further came in with an IC50 in data set [1] (Homo sapiens, LoVo, 96 h) of 33 nM. This molecule had a concentration for half-maximal inhibition (IC50) in data set [2] (Homo sapiens, Caco-2, 96 h) of more than 1000 nM.

`Cn1ccnc1Sc1ccc(Nc2c(C#N)cnc3cc(-c4ccc(CN5CCCCC5)cc4)ccc23)cc1Cl` [Example 136, 4-{3-Chloro-4-[(1-methyl-IH-imidazol-2-yl)sulfanyl]anilino}-7-[4-(1-piperidinylmethyl)phenyl]-3-quinolinecarbonitrile]: the melting point lay in the range of 158 to 160 °C. In addition, at Raf1 (c-Raf), the IC50 is 2.5 nM and 1.8 nM. In data set [1] (Homo sapiens, LoVo, 96 h), this molecule returned a concentration for half-maximal inhibition (IC50) of 11 nM. For the same molecule, the IC50 in data set [2] (Homo sapiens, Caco-2, 96 h) is more than 1000 nM.

For `Cn1ccnc1Sc1ccc(Nc2c(C#N)cnc3cc(-c4ccc(CN5CCOCC5)cc4)ccc23)cc1Cl` [Example 138, 4-({3-Chloro-4-[(1-methyl-lH-imidazol-2-yl)sulfanyl]phenyl}amino)-7-{4-[(4-morpholinyl)methyl]phenyl}-3-quinolinecarbonitrile], the IC50 against Raf1 (c-Raf) is 5.6 nM; in data set [1], 6.2 nM; in data set [2] it was 810 nM.

For `Cn1ccnc1Sc1ccc(Nc2c(C#N)cnc3cc(-c4cnc(N5CCOCC5)nc4)ccc23)cc1Cl` [Example 191, 4-{3-Chloro-4-[(1-methyl-1H-imidazol-2-yl)sulfanyl]anilino}-7-[2-(4-morpholinyl)-5-pyrimidinyl]-3-quinolinecarbonitrile], the melting point was more than 250 °C. On Raf1 (c-Raf), this molecule displayed an IC50 of 1 nM. This molecule also had a 50% inhibitory concentration (IC50) in data set [1] (Homo sapiens, LoVo, 96 h) of 30 nM. In data set [2] (Homo sapiens, Caco-2, 96 h), this molecule returned an IC50 of more than 10000 nM.

As for `Cn1ccnc1Sc1ccc(Nc2c(C#N)cnc3cc(-c4ccc(N5CCCCC5)nc4)ccc23)cc1Cl` [Example 211, 4-({3-Chloro-4-[(1-methyl-iH-imidazol-2-yl)sulfanyl]phenyl}amino)-7-[6-(1-piperidinyl)-3-pyridinyl]-3-quinolinecarbonitrile], the figures for the IC50 (against Raf1 (c-Raf); in data set [1]; in data set [2]) were 6 nM, 5.3 nM and more than 1000 nM, respectively.

(Values after US20020026052A1, “3-cyanoquinolines, 3-cyano-1,6-naphthyridines, and 3-cyano-1,7-naphthyridines as protein kinase inhibitors” (American Home Products Corporation, priority 2000, published 2002).)
